Results reported in PMC7382241, “Genomic discovery of an evolutionarily programmed modality for small-molecule targeting of an intractable protein surface” (Proceedings of the National Academy of Sciences of the …, 2020).

Biological target: T1, FKBP12 (Homo sapiens, UniProt P62942)
T1 construct: gene FKBP1A; AVI-tagged FKBP12, E. coli BL21(DE3)pLysS, immobilized on NTA sensor chip
Assay type: binding
Conditions: 25 °C; binary complex

T1 sequence (P62942 2-108): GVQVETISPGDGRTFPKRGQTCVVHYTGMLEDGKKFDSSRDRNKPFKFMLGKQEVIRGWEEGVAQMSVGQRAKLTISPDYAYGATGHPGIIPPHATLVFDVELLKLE

C=CC[C@@H]1/C=C(\C)C[C@H](C)C[C@H](OC)[C@H]2O[C@@](O)(C(=O)C(=O)N3CCCC[C@H]3C(=O)O[C@H](/C(C)=C/[C@@H]3CC[C@@H](O)[C@H](OC)C3)[C@H](C)[C@@H](O)CC1=O)[C@H](C)C[C@@H]2OC [FK506]
KD: KD measurements by SPR for WDB001, WDB002, WDB003, WDB011, rapamycin, and FK506
